For 15 compounds, TGI and GI50 results are on record in PubChem BioAssay (NCI).

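Method: 48-hour compound exposure of cells in 96-well plates, five concentrations, linear interpolation of endpoints. The concentration for 50% growth inhibition is given as GI50. At the TGI there is no net growth.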

Common to all, as to assay: growth of human tumour cells (NCI), 48 h
Assay [1] relates to HOP-62 NSCLC.
Assay [2] has as its system CAKI-1 renal.
The subject of assay [3] is HCT-15 colon.
The subject of assay [4] is K-562 leukemia.
Assay [5] has as its system HOP-92 NSCLC.
Assay [6] deals with LOX IMVI melanoma.
Assay [7] concerns OVCAR-3 ovarian.
Assay [8] concerns MOLT-4 leukemia.
For assay [9], the system named is M14 melanoma.
For assay [10], the system named is EKVX NSCLC.

As for `CN1C2CCC1C(CO)C(=O)C2` (centres undefined), the TGI in [1] was above 100 µM; in assay [2], above 100 µM; in assay [3], 75.3 µM; in assay [4] it was 72 µM; in assay [5], above 100 µM; in assay [6], above 100 µM. Besides, the TGI in [7] is above 100 µM; in assay [8], 59.5 µM.
`CC(=O)N=S(NC(=O)c1ccc(C)cc1)C(Cl)(Cl)Cl` (centres undefined): the TGI is above 100 µM in [1]; above 100 µM in [3]; above 100 µM in [4]; above 100 µM in assay [5]; 80.1 µM in assay [6]; 52 µM in assay [7]. For the same compound, the TGI in assay [8] was 83.8 µM; in [9], 31.8 µM; in assay [10], above 100 µM.
On to `COc1ccc(C(=O)/C=C/c2ccc(OCCCCCCCCCCOc3ccc(/C=C/C(=O)c4ccc(OC)c(OC)c4)cc3)cc2)c(OC)c1`, for which the TGI in [1], in [2], in assay [3], in [4], in assay [8] and in [9] was above 100 µM in each case. In assay [10], this compound gave a TGI above 100 µM.
Regarding `O=C(O[C@@H](/C=C/c1ccccc1)P1(=O)N(Cc2ccccc2)[C@@H]2CCCC[C@H]2N1Cc1ccccc1)c1ccccc1`, the TGI in [1] was above 100 µM; in [2], 4.41 µM; in [3], above 100 µM; in assay [4] it was above 100 µM; in assay [5], 5.52 µM; in [6], 11.1 µM. Besides, the TGI in [7], in assay [9] and in assay [10] was above 100 µM throughout.
Consider `Nc1cc2nc(-c3ccccc3)cn2cn1`, for which the TGI in [1], in assay [2], in [3], in assay [4], in assay [6] and in [7] was above 100 µM in each case. For the same compound, the results for the TGI in assay [8], in assay [9] and in assay [10] were above 100 µM, above 100 µM and 95.3 µM, respectively.
In the case of `O/N=C/[C@H]1COC2(CCCCC2)O1`, the TGI in assay [1], in [3], in assay [4], in assay [5], in [6] and in assay [7] was above 100 µM in each case. Besides, the TGI in assay [8], in assay [9] and in assay [10] was above 100 µM each time.
On to `O=C1CCC(CCc2nc3ccccc3[nH]2)(c2ccccc2)C(=O)N1` (centres undefined), for which the TGI in assay [1], in assay [2], in assay [3], in assay [4], in assay [5] and in assay [6] was above 100 µM in each case. The TGI in [7], in assay [9] and in assay [10] was above 100 µM each time.
With `Cc1ccc(S(=O)(=O)N2CCc3cc(O)c([N+](=O)[O-])cc32)cc1`, the TGI in assay [1], in assay [2], in assay [3], in [6], in [8] and in [9] was above 100 µM throughout.
`CCc1ccc(OCc2ccccc2C(=O)Nc2ccc3nc(C)cc(N)c3c2)cc1`: the GI50 in assay [1] was 1.77 µM; in [5] it was 1.16 µM; in assay [7] it was 1.62 µM. In addition, the results for the TGI in [1], in [5] and in assay [7] were 3.31 µM, 2.55 µM and 3.04 µM, respectively.
As for `Fc1ccc(OCc2ccc3nc(-c4ccccc4)c(Cl)nc3c2)cc1`, the TGI is 31.3 µM in assay [1]; 60.6 µM in assay [2]; above 100 µM in [3]; 50.1 µM in assay [5]; above 100 µM in assay [6]; above 100 µM in assay [7]. Also, the figures for the TGI in [8], in [9] and in assay [10] were 60 µM, above 100 µM and above 100 µM, respectively.
Regarding `CCC1(c2ccc(OC)c(OC)c2)CCN2C(=O)C(O)CC21` (centres undefined), the TGI in [1], in assay [2], in assay [3], in assay [4], in assay [6] and in assay [7] was above 100 µM in each case. Moreover, the TGI in assay [8], in assay [9] and in [10] was above 100 µM throughout.
Consider `CC12CCC(=O)[C@@]1(C)CCCC2=O` (some centres undefined), for which the TGI in assay [1], in assay [2], in assay [3], in assay [4], in assay [6] and in assay [8] was above 100 µM each time. Further, the TGI in assay [9] and in assay [10] was above 100 µM in each case.
Regarding `COc1cccc(Nc2nc3c([nH]2)c(=O)n(C)c(=O)n3C)c1`, the TGI in [1], in assay [2], in assay [3], in [4], in assay [5] and in assay [6] was above 10 µM throughout. Also, the TGI in assay [8], in assay [9] and in assay [10] was above 10 µM throughout.
Regarding `O=C(/C=C/CC(O)(c1ccccc1)c1ccccc1)Nc1ccccc1Cl`, the TGI in assay [1], in [2], in [3], in [4], in assay [5] and in assay [7] was above 100 µM in each case. For the same compound, the TGI in assay [8], in [9] and in assay [10] was above 100 µM each time.
For `CC(=O)OC1COC(N2c3ccccc3[C@@H]3CCc4c([nH]c5ccccc45)[C@@H]32)C(OC(C)=O)C1OC(C)=O` (mixture of isomers), the TGI in assay [1], in assay [2], in assay [3], in [5], in [7] and in [8] was above 100 µM each time. Further, the TGI in [9] and in [10] was above 100 µM in each case.
